From publication PMC6696947 (European journal of pharmacology, 2019)
Entries after “also recorded” stand apart in the source; their conditions may differ.

Experiments:
rats [1] = conditions: positive control; ref Carlezon et al., 2006; Curzon et al., 2009; cited from earlier work
rats [2] = assay: Self-administration model; assay type: in vivo, male Sprague-Dawley rats; conditions: n=8
rats [3] = assay: Hot plate model; assay type: in vivo, male Sprague-Dawley rats; conditions: JT07/JT09 20 mg/kg p.o.; morphine 10 mg/kg i.p.; %MPE, 53.0 °C, cut-off 30 s
rats [4] = assay: Acetic acid-induced writhing model; assay type: in vivo, male Sprague-Dawley rats; conditions: test compound 20 mg/kg p.o.; morphine 10 mg/kg i.p.; Student's t-test, P<0.05
rats [5] = assay: Locomotor open field test; conditions: JT09 20 mg/kg p.o.; morphine 10 mg/kg i.p.
[6] = no reference given, cited from earlier work
[7] = no reference given; cited from earlier work
[8] = no reference given, cited from earlier work; remark: listed apart in the source

For `COC(=O)[C@@H]1C[C@H](OC(C)=O)C(=O)[C@H]2[C@@]1(C)CC[C@H]1C(=O)O[C@H](c3ccoc3)C[C@]21C` [Salvinorin A], the “depressant-like effects (in words)” value (rats [1]) is listed as “known depressant-like effects at high dose levels, such as dysphoria”.

For `COC(=O)[C@H]1[C@@H](OC(=O)c2ccccc2)C[C@@H]2CC[C@H]1N2C` [cocaine], the “number of cocaine infusions / active lever presses over 7 days” value (rats [2]; cocaine 50ug/50ul bolus after JT09, nose poke, F(6,42)=4.6, P<0.0012) was “number of cocaine infusions increased over the 7 days; also recorded: number of cocaine active lever presses increased over the 7 days; also recorded: expected increase in the number of lever presses over the seven-day period” and the “cocaine infusions / active lever presses on days 6 and 7” value (rats [2]; cocaine after JT09, Dunnett post hoc, P<0.05) was “significantly more infusion on days 6 and 7; also recorded: significantly more active lever presses on days 6 and 7”.

For `CN1CC[C@]23c4c5ccc(O)c4O[C@H]2[C@@H](O)C=C[C@H]3[C@H]1C5` [morphine], the “analgesic activity in hot plate model” value (rats [3]) was “potent analgesic”, the “potency/efficacy versus morphine in writhing (peripheral pain)” value (rats [4]) was “comparable analgesic activity” and the “sedation (in words)” value (rats [5]) was “highly sedative”.

For D-Phe-D-Phe-D-Nle-D-Arg-NH2 [CR665], the “peripheral to central selectivity in analgesic models (in words)” value ([6]; i.v., background statement in abstract) is given as “high peripheral to central selectivity”, the peripheral-selectivity ([6]; peripheral versus central) is given as 548 fold and the “efficacy in visceral and neuropathic pain (in words)” value [7] is given as “has demonstrated efficacy in the treatment of visceral and neuropathic pain without the negative side-effects of centrally acting KOAs”. The “oral activity (in words)” value ([8]; background statement in abstract) was “inactive when administered orally” and the “oral bioavailability (in words)” value [8] was “does not have significant oral bioavailability”.
